Test results: patent publication US4486441A, “Pseudotropyl halogeno-benzoates and their use in migraine treatment” (Merrell Toraude Et Compagnie, priority 1982, dated 1984)
Where two headings read alike, the source gives them in different places.

Assays:
5-HT M-receptor [1] = molecular target: T1, 5-HT M-receptor (Oryctolagus cuniculus, UniProt A0A5F9C9J3); experiment: pA2 against 5-HT in the isolated rabbit heart
T1 construct: determining their pA2 values in the isolated rabbit heart; from tissue; host or cells: isolated rabbit heart
T1 sequence (A0A5F9C9J3 1-494): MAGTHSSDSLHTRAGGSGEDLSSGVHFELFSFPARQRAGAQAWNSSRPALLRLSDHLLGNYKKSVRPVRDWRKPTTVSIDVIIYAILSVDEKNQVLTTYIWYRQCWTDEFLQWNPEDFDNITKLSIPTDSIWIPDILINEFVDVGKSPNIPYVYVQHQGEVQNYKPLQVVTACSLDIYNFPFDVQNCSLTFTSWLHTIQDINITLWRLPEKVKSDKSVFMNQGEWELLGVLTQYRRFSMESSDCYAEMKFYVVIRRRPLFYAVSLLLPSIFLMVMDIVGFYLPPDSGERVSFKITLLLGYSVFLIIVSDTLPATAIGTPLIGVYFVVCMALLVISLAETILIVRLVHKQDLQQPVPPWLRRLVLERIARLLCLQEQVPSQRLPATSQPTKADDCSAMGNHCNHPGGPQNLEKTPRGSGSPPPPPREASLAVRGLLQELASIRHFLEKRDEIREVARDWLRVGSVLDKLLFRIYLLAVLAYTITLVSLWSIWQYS
Protocol: The activity of the compounds against 5-HT can be assessed by determining their pA2 values in the isolated rabbit heart as described by Fozard et at Europ. J. Pharmacol. 59, 195-210 (1979). In the method described the molar concentration of antagonist which reduces the effects of twice the ED50 of 5-HT to that of the ED50 in the absence of antagonist is determined. The pA2 value is the negative logarithm of said molar concentrations.

5-HT M-receptor [2] = molecular target: T1, 5-HT M-receptor; conditions: potency as 5-HT M-receptor antagonist; values reported by Fozard et al, Eur. J. Pharmacol. 59(1979) and 49(1978); cited from earlier work
[3] = potency as 5-HT M-receptor antagonist, tests mentioned in the background section, read-out: pA2 (converted)

## COc1cc(C(=O)O[C@@H]2C[C@H]3CC[C@@H](C2)N3C)cc(OC)c1OC [pseudotropyl-3,4,5-trimethoxybenzoate]
5-HT M-receptor [1]; [3]
  Kb: 2000 nM

## CN1[C@@H]2CC[C@H]1C[C@@H](OC(=O)c1ccccc1)C2 [benzoyltropine]
5-HT M-receptor [2]
  pA2: 7.2

## CN1[C@@H]2CC[C@H]1C[C@H](OC(=O)c1cc(Cl)cc(Cl)c1)C2 [Example 1, Pseudotropyl 3,5-Dichlorobenzoate (i.e. 3,5-Dichlorobenzoic Acid Exo-8-Methyl-8-Azabicyclo[3,2,1]Oct-3-Yl Ester)]
5-HT M-receptor [1]; isolated rabbit heart, antagonism of 5-HT, read-out: pA2 (5-HT) (converted)
  Kb: 2.51 nM

## CN1[C@@H]2CC[C@H]1C[C@H](OC(=O)c1ccccc1)C2 [pseudotropyl benzoate]
5-HT M-receptor [2]
  pA2: 7.0

## COc1cc(OC)cc(C(=O)O[C@@H]2C[C@H]3CC[C@@H](C2)N3C)c1 [pseudotropyl-3,5-dimethoxybenzoate]
5-HT M-receptor [1]; [3]
  Kb: 251 nM
